Experimental findings from patent US7776912B2, “Acetals of nepetalic acid and method of preparation” (E.I. du Pont de Nemours and Company, priority 2006, dated 2010) are described below.

Each structure is given as a SMILES string.

The test concerns Aedes aegypti mosquitoes. As to the kind of experiment: in vitro Gupta box landing assay (insect repellency). The note with it: 1% (w/v) in IPA, mean of three replicates; for % Mean repellency: 25 μl applied to Baudruche membrane over bovine blood, landings recorded over 20 min, (C−T)/C×100 vs IPA control well; for Mean time to first landing / Mean number of total landings: 25 μl on membrane; for Mean time to first landing: about 250 female Aedes aegypti; for Mean number of total landings: recorded at 2 min intervals over 20 min. Type of test: in vivo. The method, then: The products of Examples 1-6 were evaluated for the insect repellency against Aedes aegypti mosquitoes in the in vitro Gupta box landing assay. In this method, a chamber contained 5 wells, each covered by a Baudruche (animal intestine) membrane. Each well was filled with bovine blood, containing sodium citrate (to prevent clotting) and ATP (72 mg ATP disodium salt per 26 ml of blood), and heated to 37° C. A volume of 25 μl of isopropyl alcohol(IPA) containing one test specimen, or DEET as a control, was applied to each membrane. The concentrations were all 1% w/v in IPA except where otherwise indicated. The control was a membrane surface treated with a 1% solution of DEET.
After 5 min, approximately 250 4-day-old female Aedes aegypti mosquitoes were introduced into the chamber. The number of mosquitoes probing the membranes for each treatment was recorded at 2 min intervals over 20 min. Each datum represents the mean of three replicate experiments.
C=the total number of landings on the IPA control well, and
T=the total number of landings on the test solution well.
The % mean repellencies at 1% (w/v) are depicted in Table 2 in addition to mean time to first landing, and mean number of total landings for the nepetalic acid acetals of Examples 1-6 and for DEET as a control.

`CCN(CC)C(=O)c1cccc(C)c1` [DEET, N,N-diethyltoluamide, reference compound]: the “% Mean repellency” value is given as 68.60%, the “Mean time to first landing” value stood at 3.5 min and the “Mean number of total landings” value amounted to 17.7.
On to `CC(C)COC1OC(=O)[C@H]2[C@H](CC[C@@H]2C)C1C` (stereo partly drawn) [Example 6, (4aR,7S,7aR)-3-isobutoxy-4,7-dimethylhexahydrocyclopenta[c]pyran-1(3H)-one], for which the “% Mean repellency” value is on record as 20.40%, the “Mean time to first landing” value was 2.0 min and the “Mean number of total landings” value is 91.6.
For the compound `CC(C)OC1OC(=O)[C@H]2[C@H](CC[C@@H]2C)C1C` (stereo partly drawn) [Example 4, (4aR,7S,7aR)-3-isopropoxy-4,7-dimethylhexahydrocyclopenta[c]pyran-1(3H)-one], the “% Mean repellency” value came out at 73.20%, the “Mean time to first landing” value was 2.8 min and the “Mean number of total landings” value was 30.6.
Take `COC1OC(=O)[C@H]2[C@H](CC[C@@H]2C)C1C` (stereo partly drawn) [Example 1, (4aR,7S,7aR)-3-methoxy-4,7-dimethylhexahydrocyclopenta[c]pyran-1(3H)-one]: the “% Mean repellency” value was 79.30%, the “Mean time to first landing” value came to 3.2 min and the “Mean number of total landings” value is listed as 12.2.
The like results for `CCOC1OC(=O)[C@H]2[C@H](CC[C@@H]2C)C1C` (stereo partly drawn) [Example 2, (4aR,7S,7aR)-3-ethoxy-4,7-dimethylhexahydrocyclopenta[c]pyran-1(3H)-one] were, in that order, 52.40%, 5.2 min and 26.4.
Regarding `CCCCOC1OC(=O)[C@H]2[C@H](CC[C@@H]2C)C1C` (stereo partly drawn) [Example 5, (4aR,7S,7aR)-3-n-butoxy-4,7-dimethylhexahydrocyclopenta[c]pyran-1(3H)-one], the “% Mean repellency” value came to 17.80%, the “Mean time to first landing” value is reported as 2.8 min and the “Mean number of total landings” value came out at 33.8.
As to `CCCOC1OC(=O)[C@H]2[C@H](CC[C@@H]2C)C1C` (stereo partly drawn) [Example 3, (4aR,7S,7aR)-3-n-propoxy-4,7-dimethylhexahydrocyclopenta[c]pyran-1(3H)-one], the “% Mean repellency” value is 89.10%, the “Mean time to first landing” value is recorded as 11.6 min and the “Mean number of total landings” value was 5.2.
